Experimental data: patent publication US20240018161A1, “MODULATORS OF CYSTIC FIBROSIS TRANSMEMBRANE CONDUCTANCE REGULATOR” (VERTEX PHARMACEUTICALS INCORPORATED, priority 2020, published 2024)
pEC50: −log10 of the molar value. Read-outs that look alike come from different tables or passages of the source.

Molecular target: CFTR-mediated chloride transport in human intestinal epithelial enteroid cells (Homo sapiens, UniProt P13569)
Test: Membrane potential dye, Enteroid Assay A
Type: cell-based
Conditions: for pEC50: read-out: Ent. A EC50
Method in brief: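 Membrane potential dye (20 μM methyl oxonol, with 30 μM CaCCinh-A01 and 30 μM Chicago Sky Blue) loaded 25 min at room temperature into ROCK-inhibitor-seeded human enteroid cells. Chloride-free stimulation buffer triggered transport, followed by 15 min fluorescence. % Activity relative to 3 μM/3 μM/300 nM triple-combination control.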

[1] = enteroid cells incubated with test compound 18-24 hours, acute 10 μM forskolin and 300 nM N-[2,4-bis(1,1-dimethylethyl)-5-hydroxyphenyl]-1,4-dihydro-4-oxoquinoline-3-carboxamide
[2] = percentage of chloride transport of triple combination control (3 μM N-[(6-amino-2-pyridyl)sulfonyl]-6-(3-fluoro-5-isobutoxy-phenyl)-2-[(4S)-2,2,4-trimethylpyrrolidin-1-yl]pyridine-3-carboxamide based)

Chain of CFTR-mediated chloride transport in human intestinal epithelial enteroid cells (P13569 with tags, fused parts or gaps DEL508-508): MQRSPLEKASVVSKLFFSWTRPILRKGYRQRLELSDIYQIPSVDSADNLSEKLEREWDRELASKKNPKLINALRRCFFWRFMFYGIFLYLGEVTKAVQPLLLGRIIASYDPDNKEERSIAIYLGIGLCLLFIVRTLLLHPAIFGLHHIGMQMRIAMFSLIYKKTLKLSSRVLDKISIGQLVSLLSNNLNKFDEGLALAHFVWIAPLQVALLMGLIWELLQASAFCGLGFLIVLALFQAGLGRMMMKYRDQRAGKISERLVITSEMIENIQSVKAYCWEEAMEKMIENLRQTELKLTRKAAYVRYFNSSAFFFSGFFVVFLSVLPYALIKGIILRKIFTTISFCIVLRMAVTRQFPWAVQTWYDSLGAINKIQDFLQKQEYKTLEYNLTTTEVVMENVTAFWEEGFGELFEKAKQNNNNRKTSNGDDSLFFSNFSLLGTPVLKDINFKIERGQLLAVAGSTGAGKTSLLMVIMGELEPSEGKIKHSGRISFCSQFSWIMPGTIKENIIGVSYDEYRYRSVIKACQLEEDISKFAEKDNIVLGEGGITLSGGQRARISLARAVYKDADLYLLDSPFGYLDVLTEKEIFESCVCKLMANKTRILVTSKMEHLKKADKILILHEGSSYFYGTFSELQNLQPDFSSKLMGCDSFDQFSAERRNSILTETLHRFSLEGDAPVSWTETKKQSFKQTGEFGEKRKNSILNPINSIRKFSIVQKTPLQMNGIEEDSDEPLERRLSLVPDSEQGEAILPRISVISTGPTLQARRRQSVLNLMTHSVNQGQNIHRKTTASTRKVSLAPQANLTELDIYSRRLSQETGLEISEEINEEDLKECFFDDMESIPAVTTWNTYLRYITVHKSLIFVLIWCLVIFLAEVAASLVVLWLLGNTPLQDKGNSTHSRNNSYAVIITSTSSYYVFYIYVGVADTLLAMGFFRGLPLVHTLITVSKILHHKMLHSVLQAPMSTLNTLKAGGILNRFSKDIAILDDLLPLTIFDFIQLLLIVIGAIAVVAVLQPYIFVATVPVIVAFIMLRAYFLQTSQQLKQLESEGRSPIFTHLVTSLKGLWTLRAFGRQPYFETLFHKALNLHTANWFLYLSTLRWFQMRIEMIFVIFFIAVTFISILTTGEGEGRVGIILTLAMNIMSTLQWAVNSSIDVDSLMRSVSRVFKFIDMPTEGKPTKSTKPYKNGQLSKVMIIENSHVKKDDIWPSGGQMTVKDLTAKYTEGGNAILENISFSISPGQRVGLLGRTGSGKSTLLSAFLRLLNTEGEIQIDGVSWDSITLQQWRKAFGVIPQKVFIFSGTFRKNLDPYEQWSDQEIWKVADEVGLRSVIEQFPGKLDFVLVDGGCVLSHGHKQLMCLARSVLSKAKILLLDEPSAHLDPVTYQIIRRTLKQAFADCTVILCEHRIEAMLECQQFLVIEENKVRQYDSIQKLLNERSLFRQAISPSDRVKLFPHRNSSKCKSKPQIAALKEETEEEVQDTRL

SMILES | Ent. A Max Activity (%) (Enteroid Assay A) | pEC50 (Enteroid Assay A) | pEC50 [1] | Ent. A Max Activity (%) [2]
Cc1cccc(C)c1-c1cc2nc(n1)NS(=O)(=O)N1CCc3ccc(cc31)C(=O)N1Cc3ccccc3[C@@H](O2)[C@H]1CC(C)C [Compound 249] | ++ (++ is 30-60%) | > 6.00 |  | 
Cc1cccc(C)c1-c1cc2nc(n1)NS(=O)(=O)N1CCc3ccc(cc31)C(=O)N1Cc3ccccc3[C@@H](O2)[C@H]1CC(C)C [Compound 250] | ++ (++ is 30-60%) | 5.52 to 6.00 |  | 
COC(=O)C1CC2CN(C1)C(=O)Nc1cccc(c1)S(=O)(=O)Nc1nc(cc(-c3c(C)cccc3C)n1)O2 (stereo not drawn) [Compound 252] |  |  | 5.52 to 6.00 | ++ (++ is 30-60%)
Cc1cccc(C)c1-c1cc2nc(n1)NS(=O)(=O)c1cccc(c1)C1CCCCN1C(CC(C)C)CO2 (stereo not drawn) [Compound 253] |  |  |  | + (+ is <300%)
Cc1cccc(C)c1-c1cc2nc(n1)NS(=O)(=O)c1cccc(c1)C(=O)N1CCN(CC3(C)COC3)C[C@@H]1CO2 [Compound 261] |  |  |  | + (+ is <300%)
Cc1cccc(C)c1-c1cc2nc(n1)NS(=O)(=O)c1cccc(c1)C(=O)N1CCN(Cc3cnn(C(C)C)c3)C[C@@H]1CO2 [Compound 264] |  |  |  | ++ (++ is 30-60%)
Cc1cccc(C)c1-c1cc2nc(n1)NS(=O)(=O)c1cccc(c1)C(=O)N1CCN(Cc3cn(C)nc3C)C[C@@H]1CO2 [Compound 276] |  |  |  | ++ (++ is 30-60%)
Cc1cccc(C)c1-c1cc2nc(n1)NS(=O)(=O)c1cccc(c1)C(=O)N1CCN(Cc3ccc[nH]c3=O)C[C@@H]1CO2 [Compound 277] |  |  |  | + (+ is <300%)
Cc1cccc(C)c1-c1cc2nc(n1)NS(=O)(=O)c1cccc(c1)C(=O)N1CCN(Cc3cncn3C)C[C@@H]1CO2 [Compound 279] |  |  |  | + (+ is <300%)
Cc1cccc(C)c1-c1cc2nc(n1)NS(=O)(=O)c1cccc(c1)C(=O)N1CCN(Cc3ccncc3)C[C@@H]1CO2 [Compound 280] |  |  |  | ++ (++ is 30-60%)
Cc1cccc(C)c1-c1cc2nc(n1)NS(=O)(=O)c1cccc(c1)C(=O)N1CCN(Cc3ccccn3)C[C@@H]1CO2 [Compound 281] |  |  |  | ++ (++ is 30-60%)
Cc1cccc(C)c1-c1cc2nc(n1)NS(=O)(=O)c1cccc(c1)C(=O)N1CCN(Cc3cocn3)C[C@@H]1CO2 [Compound 283] |  |  |  | ++ (++ is 30-60%)
Cc1cccc(C)c1-c1cc2nc(n1)NS(=O)(=O)c1cccc(c1)C(=O)N1CCN(Cc3c[nH]cn3)C[C@@H]1CO2 [Compound 284] |  |  |  | + (+ is <300%)
Cc1cccc(C)c1-c1cc2nc(n1)NS(=O)(=O)c1cccc(c1)C(=O)N1CCN(Cc3ccn(C)n3)C[C@@H]1CO2 [Compound 285] |  |  |  | ++ (++ is 30-60%)
Cc1cccc(C)c1-c1cc2nc(n1)NS(=O)(=O)c1cccc(c1)C(=O)N1CCN(Cc3ncccn3)C[C@@H]1CO2 [Compound 286] |  |  |  | + (+ is <300%)
Cc1cccc(C)c1-c1cc2nc(n1)NS(=O)(=O)c1cccc(c1)C(=O)N1CCN(Cc3ccnnc3)C[C@@H]1CO2 [Compound 287] |  |  |  | + (+ is <300%)
Cc1cccc(C)c1-c1cc2nc(n1)NS(=O)(=O)c1cccc(c1)C(=O)N1CCN(Cc3ccn[nH]3)C[C@@H]1CO2 [Compound 288] |  |  |  | + (+ is <300%)
Cc1cccc(C)c1-c1cc2nc(n1)NS(=O)(=O)c1cccc(c1)C(=O)N1CCN(C(=O)NCc3ccccc3)C[C@@H]1CO2 [Compound 289] |  |  |  | + (+ is <300%)
Cc1cccc(C)c1-c1cc2nc(n1)NS(=O)(=O)c1cccc(c1)C(=O)N1CCN(C(=O)NC(C)(C)C)C[C@@H]1CO2 [Compound 291] |  |  |  | +++ (+++ is >60%)
Cc1cccc(C)c1-c1cc2nc(n1)NS(=O)(=O)c1cccc(c1)C(=O)N1CCN(C(=O)NC(C)C(C)C)C[C@@H]1CO2 (stereo partly drawn) [Compound 292] |  |  |  | ++ (++ is 30-60%)

Continued, in another order:

Ent. A Max Activity (%) (Enteroid Assay A) | pEC50 (Enteroid Assay A) | pEC50 [1] | SMILES | Ent. A Max Activity (%) [2]
 |  | 5.52 to 6.00 | Cc1cccc(C)c1-c1cc2nc(n1)NS(=O)(=O)c1cccc(c1)C(=O)N1CC(C)(C)OCC1CO2 (stereo not drawn) [Compound 254] | ++ (++ is 30-60%)
 |  | > 6.00 | Cc1cccc(C)c1-c1cc2nc(n1)NS(=O)(=O)c1cccc(c1)C(=O)N1CCN(C(=O)CC3CCCCC3)C[C@@H]1CO2 [Compound 255] | ++ (++ is 30-60%)
 |  | > 6.00 | Cc1cccc(C)c1-c1cc2nc(n1)NS(=O)(=O)c1cccc(c1)C(=O)N1CCN(CC3CCOC(C)(C)C3)C[C@@H]1CO2 (stereo partly drawn) [Compound 256] | +++ (+++ is >60%)
 |  | > 6.00 | Cc1cccc(C)c1-c1cc2nc(n1)NS(=O)(=O)c1cccc(c1)C(=O)N1CCN(CC3(NC(=O)OC(C)(C)C)CCCC3)C[C@@H]1CO2 [Compound 257] | +++ (+++ is >60%)
 |  | 4.52 to 5.52 | Cc1cccc(C)c1-c1cc2nc(n1)NS(=O)(=O)c1cccc(c1)C(=O)N1CCN(C(=O)N3CCCCC3)C[C@@H]1CO2 [Compound 258] | ++ (++ is 30-60%)
 |  | > 6.00 | CCC(CC)CN1CCN2C(=O)c3cccc(c3)S(=O)(=O)Nc3nc(cc(-c4c(C)cccc4C)n3)OC[C@H]2C1 [Compound 259] | +++ (+++ is >60%)
 |  | > 6.00 | Cc1cccc(C)c1-c1cc2nc(n1)NS(=O)(=O)c1cccc(c1)C(=O)N1CCN(CC3CCCC3)C[C@@H]1CO2 [Compound 260] | +++ (+++ is >60%)
 |  | 4.52 to 5.52 | Cc1cccc(C)c1-c1cc2nc(n1)NS(=O)(=O)c1cccc(c1)C(=O)N1CCN(CC3CC3)C[C@@H]1CO2 [Compound 262] | +++ (+++ is >60%)
 |  | 4.52 to 5.52 | Cc1cccc(C)c1-c1cc2nc(n1)NS(=O)(=O)c1cccc(c1)C(=O)N1CCN(CCC3CCOCC3)C[C@@H]1CO2 [Compound 263] | ++ (++ is 30-60%)
 |  | 4.52 to 5.52 | CNc1ccc(CN2CCN3C(=O)c4cccc(c4)S(=O)(=O)Nc4nc(cc(-c5c(C)cccc5C)n4)OC[C@H]3C2)cn1 [Compound 265] | ++ (++ is 30-60%)
 |  | 4.52 to 5.52 | Cc1cccc(C)c1-c1cc2nc(n1)NS(=O)(=O)c1cccc(c1)C(=O)N1CCN(Cc3ccccc3C#N)C[C@@H]1CO2 [Compound 266] | +++ (+++ is >60%)
 |  | 5.52 to 6.00 | Cc1cccc(C)c1-c1cc2nc(n1)NS(=O)(=O)c1cccc(c1)C(=O)N1CCN(Cc3cccc(C#N)c3)C[C@@H]1CO2 [Compound 267] | +++ (+++ is >60%)
 |  | 5.52 to 6.00 | Cc1cccc(C)c1-c1cc2nc(n1)NS(=O)(=O)c1cccc(c1)C(=O)N1CCN(CCC(C)C)C[C@@H]1CO2 [Compound 268] | +++ (+++ is >60%)
 |  | > 6.00 | Cc1cccc(C)c1-c1cc2nc(n1)NS(=O)(=O)c1cccc(c1)C(=O)N1CCN(CC(C)C)C[C@@H]1CO2 [Compound 269] | +++ (+++ is >60%)
 |  | 5.52 to 6.00 | Cc1cccc(C)c1-c1cc2nc(n1)NS(=O)(=O)c1cccc(c1)C(=O)N1CCN(Cc3ccc(C#N)cc3)C[C@@H]1CO2 [Compound 270] | +++ (+++ is >60%)
 |  | > 6.00 | Cc1cccc(C)c1-c1cc2nc(n1)NS(=O)(=O)c1cccc(c1)C(=O)N1CCN(Cc3ccccc3O)C[C@@H]1CO2 [Compound 271] | +++ (+++ is >60%)
 |  | 4.52 to 5.52 | Cc1cccc(C)c1-c1cc2nc(n1)NS(=O)(=O)c1cccc(c1)C(=O)N1CCN(Cc3cccc(O)c3)C[C@@H]1CO2 [Compound 272] | +++ (+++ is >60%)
 |  | 5.52 to 6.00 | Cc1cccc(C)c1-c1cc2nc(n1)NS(=O)(=O)c1cccc(c1)C(=O)N1CCN(Cc3ccc(O)cc3)C[C@@H]1CO2 [Compound 273] | ++ (++ is 30-60%)
 |  | 4.52 to 5.52 | Cc1ccc(CN2CCN3C(=O)c4cccc(c4)S(=O)(=O)Nc4nc(cc(-c5c(C)cccc5C)n4)OC[C@H]3C2)cn1 [Compound 274] | +++ (+++ is >60%)
 |  | 4.52 to 5.52 | Cc1cccc(C)c1-c1cc2nc(n1)NS(=O)(=O)c1cccc(c1)C(=O)N1CCN(Cc3nccs3)C[C@@H]1CO2 [Compound 275] | +++ (+++ is >60%)
 |  | 4.52 to 5.52 | Cc1cccc(C)c1-c1cc2nc(n1)NS(=O)(=O)c1cccc(c1)C(=O)N1CCN(Cc3cccnc3)C[C@@H]1CO2 [Compound 282] | ++ (++ is 30-60%)
 |  | 5.52 to 6.00 | Cc1cccc(C)c1-c1cc2nc(n1)NS(=O)(=O)c1cccc(c1)C(=O)N1CCN(C(=O)NC34CC5CC(CC(C5)C3)C4)C[C@@H]1CO2 [Compound 290] | ++ (++ is 30-60%)
 |  | 4.52 to 5.52 | CC(=O)NCCN1CCN2C(=O)c3cccc(c3)S(=O)(=O)Nc3nc(cc(-c4c(C)cccc4C)n3)OC[C@H]2C1 [Compound 294] | ++ (++ is 30-60%)
